Test system: GRMD plasma proteins
Format: in vivo, dog
Details: Post-Treatment to GRMD baseline; Increased in GRMD

O=c1ccc(-c2cnc(OCC(F)(F)F)nc2)nn1Cc1cncc(F)c1 [EDG-5506]
Change from GRMD Baseline (fraction): Fructose-bisphosphate aldolase A (ALDOA): -0.0462 fraction
Change from GRMD Baseline (fraction): G2/mitotic-specific cyclin-B1 (CCNB1): 0.0445 fraction
Change from GRMD Baseline (fraction): Galectin-4 (LGALS4): -0.0246 fraction
Change from GRMD Baseline (fraction): Galectin-7 (LGALS7): 0.0215 fraction
Change from GRMD Baseline (fraction): Glucose-6-phosphate isomerase (GPI): -0.1195 fraction
Change from GRMD Baseline (fraction): Glyceraldehyde-3-phosphate dehydrogenase (GAPDH): 0.1936 fraction
Change from GRMD Baseline (fraction): Glycogen synthase kinase-3 alpha/beta (GSK3A GSK3B): -0.1722 fraction
Change from GRMD Baseline (fraction): Granulocyte-macrophage colony-stimulating factor (CSF2): -0.1154 fraction
Change from GRMD Baseline (fraction): Growth factor receptor-bound protein 2 (GRB2): -0.2826 fraction
Change from GRMD Baseline (fraction): Growth/differentiation factor 5 (GDF5): -0.0828 fraction
Change from GRMD Baseline (fraction): Heat shock 70 kDa protein 1A (HSPA1A): -0.1812 fraction
Change from GRMD Baseline (fraction): Heat shock cognate 71 kDa protein (HSPA8): -0.1958 fraction
Change from GRMD Baseline (fraction): Heat shock protein HSP 90-alpha/beta (HSP90AA1 HSP90AB1): -0.0775 fraction
Change from GRMD Baseline (fraction): Heat shock protein HSP 90-beta (HSP90AB1): -0.0807 fraction
Change from GRMD Baseline (fraction): Heat shock protein beta-1 (HSPB1): -0.0394 fraction
Change from GRMD Baseline (fraction): Hepatoma-derived growth factor-related protein 2 (HDGFRP2): 0.011 fraction
Change from GRMD Baseline (fraction): Heterogeneous nuclear ribonucleoprotein A/B (HNRNPAB): -0.0915 fraction
Change from GRMD Baseline (fraction): Heterogeneous nuclear ribonucleoprotein Q (SYNCRIP): -0.0651 fraction
Change from GRMD Baseline (fraction): Heterogeneous nuclear ribonucleoproteins A2/B1 (HNRNPA2B1): -0.1176 fraction
Change from GRMD Baseline (fraction): Hexokinase-2 (HK2): 0.0338 fraction
Change from GRMD Baseline (fraction): Histidine triad nucleotide-binding protein 1 (HINT1): -0.0574 fraction
Change from GRMD Baseline (fraction): Histone H1.2 (HIST1H1C): -0.0242 fraction
Change from GRMD Baseline (fraction): Histone deacetylase 8 (HDAC8): 0.0429 fraction
Change from GRMD Baseline (fraction): Homeodomain-interacting protein kinase 3 (HIPK3): 0.4997 fraction
Change from GRMD Baseline (fraction): Immunoglobulin superfamily containing leucine-rich repeat protein 2 (ISLR2): -0.0595 fraction
Change from GRMD Baseline (fraction): Inducible T-cell costimulator (ICOS): -0.0476 fraction
Change from GRMD Baseline (fraction): Inosine-5'-monophosphate dehydrogenase 2 (IMPDH2): -0.0129 fraction
Change from GRMD Baseline (fraction): Insulin-degrading enzyme (IDE): -0.2863 fraction
Change from GRMD Baseline (fraction): Insulin-like growth factor-binding protein 3 (IGFBP3): 0.0105 fraction
Change from GRMD Baseline (fraction): Intercellular adhesion molecule 5 (ICAM5): -0.1345 fraction
Change from GRMD Baseline (fraction): Interferon alpha-10 (IFNA10): -0.0472 fraction
Change from GRMD Baseline (fraction): Interleukin-1 alpha (IL1A): -0.0188 fraction
Change from GRMD Baseline (fraction): Interleukin-1 receptor-like 2 (IL1RL2): 0.0618 fraction
Change from GRMD Baseline (fraction): Interleukin-15 receptor subunit alpha (IL15RA): -0.0392 fraction
Change from GRMD Baseline (fraction): Interleukin-17F (IL17F): -0.0474 fraction
Change from GRMD Baseline (fraction): Interleukin-37 (IL37): -0.0158 fraction
Change from GRMD Baseline (fraction): Junctional adhesion molecule B (JAM2): -0.0421 fraction
Change from GRMD Baseline (fraction): Junctional adhesion molecule C (JAM3): 0.0569 fraction
Change from GRMD Baseline (fraction): Kallikrein-6 (KLK6): -0.032 fraction
Change from GRMD Baseline (fraction): Kallikrein-12 (KLK12): 0.0927 fraction
Change from GRMD Baseline (fraction): Kallikrein-14 (KLK14): 0.0054 fraction
Change from GRMD Baseline (fraction): Kin of IRRE-like protein 3 (KIRREL3): 0.0811 fraction
Change from GRMD Baseline (fraction): Kremen protein 2 (KREMEN2): -0.0135 fraction
Change from GRMD Baseline (fraction): Kynureninase (KYNU): 0.1449 fraction
Change from GRMD Baseline (fraction): L-Selectin (SELL): -0.0484 fraction
Change from GRMD Baseline (fraction): L-lactate dehydrogenase B chain (LDHB): -0.1273 fraction
Change from GRMD Baseline (fraction): Leucine-rich repeat serine/threonine-protein kinase 2 (LRRK2): -0.023 fraction
Change from GRMD Baseline (fraction): Leucine-rich repeat transmembrane protein FLRT1 (FLRT1): 0.162 fraction
Change from GRMD Baseline (fraction): Low affinity immunoglobulin epsilon Fc receptor (FCER2): -0.0106 fraction
Change from GRMD Baseline (fraction): MAP kinase-activated protein kinase 2 (MAPKAPK2): -0.1017 fraction
Change from GRMD Baseline (fraction): MAP kinase-activated protein kinase 3 (MAPKAPK3): -0.0643 fraction
Change from GRMD Baseline (fraction): Macrophage scavenger receptor types I and II (MSR1): 0.4558 fraction
Change from GRMD Baseline (fraction): Malate dehydrogenase, cytoplasmic (MDH1): -0.0153 fraction
Change from GRMD Baseline (fraction): Methionine aminopeptidase 2 (METAP2): -0.0243 fraction
Change from GRMD Baseline (fraction): Microtubule-associated protein tau (MAPT): -0.0598 fraction
Change from GRMD Baseline (fraction): Mitogen-activated protein kinase 3 (MAPK3): -0.1158 fraction
Change from GRMD Baseline (fraction): Mitogen-activated protein kinase 8 (MAPK8): -0.1634 fraction
Change from GRMD Baseline (fraction): Mitogen-activated protein kinase 12 (MAPK12): -0.2043 fraction
Change from GRMD Baseline (fraction): Mitogen-activated protein kinase 14 (MAPK14): -0.1229 fraction
Change from GRMD Baseline (fraction): Mothers against decapentaplegic homolog 3 (SMAD3): -0.0623 fraction
Change from GRMD Baseline (fraction): Myeloblastin (PRTN3): -0.0133 fraction
Change from GRMD Baseline (fraction): Myoglobin (MB): -0.1998 fraction
Change from GRMD Baseline (fraction): Myosin-binding protein C, slow-type (MYBPC1): -0.0674 fraction
Change from GRMD Baseline (fraction): NKG2D ligand 2 (ULBP2): 0.031 fraction
Change from GRMD Baseline (fraction): NSFL1 cofactor p47 (NSFL1C): -0.264 fraction
Change from GRMD Baseline (fraction): Natural cytotoxicity triggering receptor 3 (NCR3): -0.0108 fraction
Change from GRMD Baseline (fraction): Neuronal cell adhesion molecule (NRCAM): -0.0939 fraction
Change from GRMD Baseline (fraction): Neutral ceramidase (ASAH2): -0.0127 fraction
Change from GRMD Baseline (fraction): Nucleoside diphosphate kinase A (NME1): -0.1372 fraction
Change from GRMD Baseline (fraction): OCIA domain-containing protein 1 (OCIAD1): -0.0044 fraction
Change from GRMD Baseline (fraction): Oncostatin-M (OSM): 0.019 fraction
Change from GRMD Baseline (fraction): Opioid-binding protein/cell adhesion molecule (OPCML): -0.0002 fraction
Change from GRMD Baseline (fraction): PIK3CA/PIK3R1 (PIK3CA PIK3R1): -0.229 fraction
Change from GRMD Baseline (fraction): Parathyroid hormone-related protein (PTHLH): -0.097 fraction
Change from GRMD Baseline (fraction): Peptidyl-prolyl cis-trans isomerase E (PPIE): -0.0771 fraction
Change from GRMD Baseline (fraction): Peroxiredoxin-1 (PRDX1): -0.0908 fraction
Change from GRMD Baseline (fraction): Peroxiredoxin-6 (PRDX6): -0.0459 fraction
Change from GRMD Baseline (fraction): Phosphatidylethanolamine-binding protein 1 (PEBP1): 0.0739 fraction
Change from GRMD Baseline (fraction): Phosphoglucomutase-1 (PGM1): 0.1179 fraction
Change from GRMD Baseline (fraction): Phosphoglycerate mutase 1 (PGAM1): -0.9265 fraction
Change from GRMD Baseline (fraction): Plasma serine protease inhibitor (SERPINA5): -0.0121 fraction
Change from GRMD Baseline (fraction): Platelet glycoprotein 4 (CD36): 0.0288 fraction
Change from GRMD Baseline (fraction): Platelet-activating factor acetylhydrolase (PLA2G7): 0.0256 fraction
Change from GRMD Baseline (fraction): Platelet-derived growth factor receptor alpha (PDGFRA): -0.0004 fraction
Change from GRMD Baseline (fraction): Proliferating cell nuclear antigen (PCNA): -0.0276 fraction
Change from GRMD Baseline (fraction): Protein NOV homolog (NOV): -0.0669 fraction
Change from GRMD Baseline (fraction): Protein S100-A12 (S100A12): -0.009 fraction
Change from GRMD Baseline (fraction): RAC-alpha/beta/gamma serine/threonine-protein kinase (AKT1 AKT2 AKT3): -0.2013 fraction
Change from GRMD Baseline (fraction): RAC-beta serine/threonine-protein kinase (AKT2): -0.1736 fraction
Change from GRMD Baseline (fraction): Rab GDP dissociation inhibitor beta (GDI2): -0.0642 fraction
Change from GRMD Baseline (fraction): Receptor tyrosine-protein kinase erbB-3 (ERBB3): -0.022 fraction
Change from GRMD Baseline (fraction): Receptor-type tyrosine-protein kinase FLT3 (FLT3): -0.0737 fraction
Change from GRMD Baseline (fraction): Renin (REN): -0.032 fraction
Change from GRMD Baseline (fraction): Retinoblastoma-associated protein (RB1): 0.235 fraction
Change from GRMD Baseline (fraction): S-formylglutathione hydrolase (ESD): 0.0004 fraction
Change from GRMD Baseline (fraction): Serine/threonine-protein kinase 17B (STK17B): 0.0071 fraction
Change from GRMD Baseline (fraction): Serine/threonine-protein kinase Chk2 (CHEK2): 0.4343 fraction
Change from GRMD Baseline (fraction): Serine/threonine-protein kinase WNK3 (WNK3): -0.2205 fraction
Change from GRMD Baseline (fraction): Serine/threonine-protein kinase receptor R3 (ACVRL1): -0.0651 fraction
Change from GRMD Baseline (fraction): Small nuclear ribonucleoprotein F (SNRPF): -0.0033 fraction
Change from GRMD Baseline (fraction): Somatostatin-28 (SST): -0.0229 fraction
Change from GRMD Baseline (fraction): T-lymphocyte activation antigen CD80 (CD80): 0.0022 fraction
Change from GRMD Baseline (fraction): Thymic stromal lymphopoietin (TSLP): -0.034 fraction
Change from GRMD Baseline (fraction): Thyroid peroxidase (TPO): -0.0311 fraction
Change from GRMD Baseline (fraction): Tissue factor pathway inhibitor (TFPI): 0.029 fraction
Change from GRMD Baseline (fraction): Transcription factor AP-1 (JUN): 0.0325 fraction
Change from GRMD Baseline (fraction): Transketolase (TKT): -0.16 fraction
Change from GRMD Baseline (fraction): Translationally-controlled tumor protein (TPT1): -0.0704 fraction
Change from GRMD Baseline (fraction): Triosephosphate isomerase (TPI1): -0.2239 fraction
Change from GRMD Baseline (fraction): Tropomyosin beta chain (TPM2): 0.0295 fraction
Change from GRMD Baseline (fraction): Troponin I, cardiac muscle (TNNI3): 0.0415 fraction
Change from GRMD Baseline (fraction): Troponin I, fast skeletal muscle (TNNI2): -0.0403 fraction
Change from GRMD Baseline (fraction): Troponin T, cardiac muscle (TNNT2): -0.0244 fraction
Change from GRMD Baseline (fraction): Tumor necrosis factor ligand superfamily member 11 (TNFSF11): 0.0726 fraction
Change from GRMD Baseline (fraction): Tumor necrosis factor receptor superfamily member 1B (TNFRSF1B): -0.0355 fraction
Change from GRMD Baseline (fraction): Tumor necrosis factor receptor superfamily member 3 (LTBR): -0.0213 fraction
Change from GRMD Baseline (fraction): Tyrosine-protein kinase Yes (YES1): -0.136 fraction
Change from GRMD Baseline (fraction): Tyrosine-protein kinase ZAP-70 (ZAP70): 0.0305 fraction
Change from GRMD Baseline (fraction): Tyrosine-protein phosphatase non-receptor type 1 (PTPN1): -0.0601 fraction

Reference: PMC10178848, “Modulating fast skeletal muscle contraction protects skeletal muscle in animal models of Duchenne muscular dystrophy” (The Journal of Clinical Investigation, 2023)
